Measured values as given in patent publication US5925730A, “GnRH antagonists” (Ferring BV, priority 1997, dated 1999).
One block for each compound: values may come before it. Starred links: 1 amine or outer side, 2 acyl side, 3 side chain; linkers in the order of their positions; H or OH if unused. Non-standard residues stand in square brackets, D forms with d. Residues, ends and D or L forms follow the SMILES beside them. Groups on a side chain read outwards from the residue. *: point of attachment. dPhe(4-NHCONH2) = NC(=O)Nc1ccc(C[C@@H](N)C(=O)O)cc1; Phe(4-NHCONH2) = NC(=O)Nc1ccc(C[C@H](N)C(=O)O)cc1; dPhe(4-NH2) = Nc1ccc(C[C@@H](N)C(=O)O)cc1; dPhe(4-Cl) = N[C@H](Cc1ccc(Cl)cc1)C(=O)O; Phe(4-NH2) = Nc1ccc(C[C@H](N)C(=O)O)cc1; d2Nal = N[C@H](Cc1ccc2ccccc2c1)C(=O)O; Lys(iPr) = CC(C)NCCCC[C@H](N)C(=O)O; d3Pal = N[C@H](Cc1cccnc1)C(=O)O; X1 = O=C1NC[C@@H](C(=O)*)N1; CO = O=C([*:1])[*:2]

What was measured:
[1] = tested on: secretion of LH; assay: in vivo rat LH suppression test (circulating LH levels in castrated male rats after sc injection); set-up: species or system castrated male Sprague-Dawley rats; conditions: for effectiveness in suppression of LH compared with Acyline, day 1 through day 4 (96 hours): days 1-4; for suppression of LH compared with Acyline at days 3 and 4 (72 and 96 hours; after the first 2 days): days 3-4; for effectiveness in suppression of LH compared with Acyline, day 1 through day 3: days 1-3; for effectiveness in suppression of LH compared with Acyline, first two days: days 1-2
Procedure: The peptide is assayed in vivo to determine its effectiveness to suppress the secretion of LH in rats. Measurement of circulating LH levels in castrated male Sprague-Dawley rats treated subcutaneously with the peptide is carried out as reported in C. Rivier et al. Biol. Reproduc., 1983, 29, 374-378. The peptides are first dissolved at a concentration of 1.0 or 10 mg/ml in bacteriostatic water and then further diluted in 0.04 M phosphate buffer containing 0.1% BSA. Subsequent dilutions are made in phosphate buffer. The peptides are injected sc into 5 rats, and blood samples (300 μl) are collected under metotane anesthesia. Sera (50 μl) are tested for LH levels in duplicate using reagents provided by the National Pituitary and Hormone Distribution Program of the NIDDK.

[2] = hydrophilicity by RP-HPLC retention time (TEAP pH 7.0 / CH3CN gradient); format: physicochemical; conditions: for hydrophilicity compared with Azaline B: RP-HPLC elution
[3] = water solubility compared with Acyline; format: physicochemical

Compound: Ac-β-D-2Nal-D-Cpa-D-3Pal-Ser-4Aph(hydroorotyl)-D-4Aph(acetyl)-Leu-Lys(isopropyl)-Pro-D-Ala-NH2 [Example 1B]
- duration of bioactivity for the suppression of LH (rating in words) ([1]; 50 micrograms sc): very long-acting
- effectiveness in suppression of LH compared with Acyline, day 1 through day 4 (96 hours) ([1]; 50 micrograms sc): about as effective as Acyline

Compound: Ac-D-2Nal-D-4Cpa-D-3Pal-Ser-4Aph(D/L-2-imidazolidone-4-carbonyl)-D-4Aph(Ac)-Leu-ILys-Pro-D-Ala-NH2 [Example 3]
- duration of bioactivity for the suppression of LH (rating in words) ([1]; 50 micrograms sc): long duration
- suppression of LH compared with Acyline at days 3 and 4 (72 and 96 hours; after the first 2 days) ([1]; 50 micrograms sc): marginally better

Compound: Ac-β-D-2Nal-D-Cpa-D-3Pal-Ser-4Aph(D-hydroorotyl)-D-4Aph(acetyl)-Leu-Lys(isopropyl)-Pro-D-Ala-NH2 [Example 1D]
- duration of bioactivity for the suppression of LH (rating in words) ([1]; 50 micrograms sc): long-acting
- effectiveness in suppression of LH compared with Acyline, day 1 through day 4 (96 hours) ([1]; 50 micrograms sc): about as effective as Acyline

- hydrophilicity compared with Azaline B [2]: more hydrophilic than Azaline B
Compound: methylcarbamoyl-β-D-2Nal-D-4Cpa-D-3Pal-Ser-4Aph(hydroorotyl)-D-4Aph(acetyl)-Leu-Lys(isopropyl)-Pro-D-Ala-NH2 [Example 1J]
- duration of bioactivity for the suppression of LH (rating in words) ([1]; 50 micrograms sc): very long-acting
- how much more effective than Acyline in suppression of LH after 96 hours ([1]; 50 micrograms sc, 96 hours): ~50%
- effectiveness in suppression of LH compared with Acyline, day 1 through day 3 ([1]; 50 micrograms sc): about as effective as Acyline

Compound: Ac-D-2Nal-D-4Cpa-D-3Pal-Ser-4Aph(D-hydroorotyl)-D-4Amf(Ac)-Leu-ILys-Pro-D- Ala-NH2 [Example 5A]
- suppression of LH compared with Acyline at 96 hours / 4 days (after day 3) ([1]; 50 micrograms sc, 96 hours): somewhat superior to Acyline
- effectiveness in suppression of LH compared with Acyline, day 1 through day 3 ([1]; 50 micrograms sc): substantially the same as Acyline

Compound: Ac-β-D-2Nal-D-4Cpa-D-3Pal-Ser-4Amf(hydroorotyl)-D-4Aph(methylcarbamoyl)-Leu-Lys(isopropyl)-Pro-D-Ala-NH2 [Example 6B]
- activity in suppression of LH secretion compared with Acyline after 1 day ([1]; 50 micrograms sc): as active as Acyline
- activity in suppression of LH secretion compared with Acyline after 2 days ([1]; 50 micrograms sc): about as active
- suppression of LH compared with Acyline at days 3 and 4 (72 and 96 hours; after the first 2 days) ([1]; 50 micrograms sc): significantly lesser degree of suppression

- hydrophilicity compared with Azaline B [2]: more hydrophilic than Azaline B
Compound: Ac-β-D-2Nal-D-4Cpa-D-3Pal-Ser-4Aph(hydroorotyl)-D-4Aph(D-hydroorotyl)-Leu-Lys(isopropyl)-Pro-D-Ala-NH2 [Example 1H]
- duration of bioactivity for the suppression of LH (rating in words) ([1]; 50 micrograms sc): very long-acting
- suppression of LH compared with Acyline at 96 hours / 4 days (after day 3) ([1]; 50 micrograms sc, 96 hours): substantially more effective than Acyline
- effectiveness in suppression of LH compared with Acyline, day 1 through day 3 ([1]; 50 micrograms sc): about as effective as Acyline

Compound: Ac-β-D-2Nal-D-4Cpa-D-3Pal-Ser-4Amf(D-hydroorotyl)-D-4Aph(acetyl)-Leu- Lys(isopropyl)-Pro-D-Ala-NH2 [Example 6C]
- activity in suppression of LH secretion compared with Acyline after 3 days ([1]; 50 micrograms sc, 3 days): substantially less effective than Acyline
- suppression of LH compared with Acyline at 96 hours / 4 days (after day 3) ([1]; 50 micrograms sc, 96 hours): continues to significantly drop in biopotency
- effectiveness in suppression of LH compared with Acyline, first two days ([1]; 50 micrograms sc): substantially as effective

Compound: Ac-β-D-2Nal-D-4Cpa-D-3Pal-Ser-4Amf(hydroorotyl)-D-4Aph(carbamoyl)-Leu-Lys(isopropyl)-Pro-D-Ala-NH2 [Example 6A]
- activity in suppression of LH secretion compared with Acyline after 1 day ([1]; 50 micrograms sc): as active as Acyline
- activity in suppression of LH secretion compared with Acyline after 2 days ([1]; 50 micrograms sc): nearly as active
- activity in suppression of LH secretion compared with Acyline after 3 days ([1]; 50 micrograms sc, 3 days): somewhat less active
- suppression of LH compared with Acyline at 96 hours / 4 days (after day 3) ([1]; 50 micrograms sc, 96 hours): about the same activity as Acyline

Compound: Acetyl-β-D-2Nal-D-4Cpa-D-3Pal-Ser-4Aph(hydroorotyl)-D-3Pal-Leu-Lys(isopropyl)-Pro-D-Ala-NH2 [Example 1K]
- duration of bioactivity for the suppression of LH (rating in words) ([1]; 50 micrograms sc): very long-acting
- LH levels after 96 hours as percentage of the LH levels of rats injected with Acyline ([1]; 50 micrograms sc, 96 hours, comparator Acyline 50 micrograms): about 35%
- effectiveness in suppression of LH compared with Acyline, day 1 through day 3 ([1]; 50 micrograms sc): about as effective as Acyline

- water solubility compared with Acyline [3]: more water soluble than Acyline
Compound: CC(=O)Nc1ccc(C[C@@H](NC(=O)[C@H](Cc2ccc(NC(=O)[C@@H]3CNC(=O)N3)cc2)NC(=O)[C@H](CO)NC(=O)[C@@H](Cc2cccnc2)NC(=O)[C@@H](Cc2ccc(Cl)cc2)NC(=O)[C@@H](Cc2ccc3ccccc3c2)NC(C)=O)C(=O)N[C@@H](CC(C)C)C(=O)N[C@@H](CCCCNC(C)C)C(=O)N2CCC[C@H]2C(=O)N[C@H](C)C(N)=O)cc1 [Example 3A] (Ac-[d2Nal][dPhe(4-Cl)][d3Pal]S[Phe(4-NH2)](X1)[dPhe(4-NH2)](Ac)L[Lys(iPr)]P[dA]-NH2)

Compound: Ac-D-2Nal-D-4Cpa-D-3Pal-Ser-4Aph(D-hydroorotyl)-D-4Amf(Cbm)-Leu-ILys-Pro-D-Ala-NH2 [Example 5]
- effectiveness in suppression of LH compared with Acyline, first two days ([1]; 50 micrograms sc): about as long as Acyline
- suppression of LH compared with Acyline at days 3 and 4 (72 and 96 hours; after the first 2 days) ([1]; 50 micrograms sc): some lesser degree of suppression

Compound: Ac-β-D-2Nal-D-4Cpa-D-3Pal-Ser-4Amf(hydroorotyl)-D-4Amf(acetyl)-Leu-Lys(isopropyl)-Pro-D-Ala-NH2 [Example 6]
- duration of bioactivity for the suppression of LH (rating in words) ([1]; 50 micrograms sc): long-acting
- effectiveness in suppression of LH compared with Acyline, first two days ([1]; 50 micrograms sc): about the same as Acyline
- suppression of LH compared with Acyline at days 3 and 4 (72 and 96 hours; after the first 2 days) ([1]; 50 micrograms sc): nearly equal to that of Acyline

- hydrophilicity compared with Azaline B [2]: more hydrophilic than Azaline B
Compound: Ac-β-D-2Nal-D-4Cpa-D-3Pal-Ser-4Aph(hydroorotyl)-D-4Aph(hydroorotyl)-Leu-Lys(isopropyl)-Pro-D-Ala-NH2 [Example 1G]
- duration of bioactivity for the suppression of LH (rating in words) ([1]; 50 micrograms sc): long-acting
- effectiveness in suppression of LH compared with Acyline, day 1 through day 4 (96 hours) ([1]; 50 micrograms sc): about as effective as Acyline

Compound: Ac-D-2Nal-D-4Cpa-D-3Pal-Ser-4Aph(L-Imz)-D-4Amf(carbamoyl)-Leu-ILys-Pro-D-Ala-NH2 [Example 3B]
- duration of bioactivity for the suppression of LH (rating in words) ([1]; 50 micrograms sc): long duration
- suppression of LH compared with Acyline at 96 hours / 4 days (after day 3) ([1]; 50 micrograms sc, 96 hours): somewhat superior
- effectiveness in suppression of LH compared with Acyline, day 1 through day 3 ([1]; 50 micrograms sc): substantially the same as Acyline

Compound: CC(=O)N[C@H](Cc1ccc2ccccc2c1)C(=O)N[C@H](Cc1ccc(Cl)cc1)C(=O)N[C@H](Cc1cccnc1)C(=O)N[C@@H](CO)C(=O)N[C@@H](Cc1ccc(NC(N)=O)cc1)C(=O)N[C@H](Cc1ccc(NC(N)=O)cc1)C(=O)N[C@@H](CC(C)C)C(=O)N[C@@H](CCCCNC(C)C)C(=O)N1CCC[C@H]1C(=O)N[C@H](C)C(N)=O [Example 1L, Ac-β-D-2Nal-D-4Cpa-D-3Pal-Ser-4Aph(carbamoyl)-D-4Aph(carbamoyl)-Leu-Lys(isopropyl)-Pro-D-Ala-NH2] (Ac-[d2Nal][dPhe(4-Cl)][d3Pal]S[Phe(4-NHCONH2)][dPhe(4-NHCONH2)]L[Lys(iPr)]P[dA]-NH2)
- duration of bioactivity for the suppression of LH (rating in words) ([1]; 50 micrograms sc): long-acting
- effectiveness in suppression of LH compared with Acyline, day 1 through day 4 (96 hours) ([1]; 50 micrograms sc): about as effective as Acyline

- hydrophilicity compared with Cetrorelix [2]: more hydrophilic than Cetrorelix
Compound: Ac-D-2Nal-D-4Cpa-D-3Pal-Ser-4Aph(hydroorotyl)-D-Cit-Leu-ILys-Pro-D-Ala-NH2 [Example 2]
- suppression of LH at 3 days (comparator apparently Cetrorelix) ([1]; tested as in Example 1, 3 days): marginally better
- suppression of LH at 96 hours (comparator apparently Cetrorelix) ([1]; tested as in Example 1, 96 hours): substantially better
- duration of bioactivity for suppression of LH secretion compared with Cetrorelix ([1]; tested as in Example 1, dose not given): as long duration of bioactivity as Cetrorelix

Compound: Ac-β-D-2Nal-D-4Cpa-D-3Pal-Ser-4Amf(hydroorotyl)-D-4Aph(acetyl)-Leu-Lys(isopropyl)-Pro-D-Ala-NH2 [Example 1F]
- duration of bioactivity for the suppression of LH (rating in words) ([1]; 50 micrograms sc): long-acting
- effectiveness in suppression of LH compared with Acyline, day 1 through day 4 (96 hours) ([1]; 50 micrograms sc): about as effective as Acyline

Compound: Ac-D-2Nal-D-4Cpa-D-3Pal-Ser-4Aph(hydroorotyl)-D-4Amf(MeCbm)-Leu-ILys-Pro-D-Ala-NH2 [Example 4]
- duration of bioactivity for the suppression of LH (rating in words) ([1]; 50 micrograms sc): very long-acting
- suppression of LH secretion compared with Acyline (time not given) ([1]; 50 micrograms sc): better suppression of LH secretion than Acyline

Compound: CNC(=O)Nc1ccc(C[C@H](NC(=O)[C@H](CO)NC(=O)[C@@H](Cc2cccnc2)NC(=O)[C@@H](Cc2ccc(Cl)cc2)NC(=O)[C@@H](Cc2ccc3ccccc3c2)NC(C)=O)C(=O)N[C@H](Cc2ccc(NC(=O)NC)cc2)C(=O)N[C@@H](CC(C)C)C(=O)N[C@@H](CCCCNC(C)C)C(=O)N2CCC[C@H]2C(=O)N[C@H](C)C(N)=O)cc1 [Example 1M, Ac-β-D-2Nal-D-4Cpa-D-3Pal-Ser-4Aph(methylcarbamoyl)-D-4Aph(methylcarbamoyl)-Leu-Lys(isopropyl)-Pro-D-Ala-NH2] (Ac-[d2Nal][dPhe(4-Cl)][d3Pal]S[Phe(4-NH2)]([CO-NHMe])[dPhe(4-NH2)]([CO-NHMe])L[Lys(iPr)]P[dA]-NH2)
- effectiveness in suppression of LH compared with Acyline, first two days ([1]; 50 micrograms sc): about as effective as Acyline
- suppression of LH compared with Acyline at days 3 and 4 (72 and 96 hours; after the first 2 days) ([1]; 50 micrograms sc): begins to drop off somewhat

Compound: Ac-β-D-2Nal-D-Cpa-D-3Pal-Ser-4Aph(D/L-hydroorotyl)-D-4Aph(acetyl)-Leu-Lys(isopropyl)-Pro-D-Ala-NH2 [Example 1C]
- duration of bioactivity for the suppression of LH (rating in words) ([1]; 50 micrograms sc): long-acting
- effectiveness in suppression of LH compared with Acyline, day 1 through day 4 (96 hours) ([1]; 50 micrograms sc): about as effective as Acyline
